Experiments:
[1] = Practical testing of suspension formulations; type: physicochemical; details: effects occur spontaneously or over a longer period
Description: The compound of the formula (I) known, for example, from WO 2009/053058 (compound I-2 in table 1 therein) has herbicidal properties and is suitable for the production of crop protection compositions which can be employed for weed control. […] User-friendly administration forms are, for example, suspension formulations or solid formulations in which the compound of the formula (I) is present in finely ground, solid form. […] There may, for example, be precipitation, crystal growth or solidification, such that the suspension formulation becomes unusable. These effects can occur spontaneously or over a longer period and cannot be foreseen.

[2] = Stability tests: storage of oil dispersions of the active ingredient; type: physicochemical
Description: The oil dispersions described were produced analogously to DE 19951427.

[3] = in the course of production of oil dispersions or storage at room temperature, within hours or a few days
[4] = oil dispersion produced analogously to DE 19951427, storage at different temperatures for several weeks

Compound	physical stability of suspension formulations [1]	change in viscosity of the oil dispersions [2, 3]	precipitation or crystallization of the active ingredient in the oil dispersion [2, 3]	change in the viscosity of the oil dispersions [2, 4]	signs of precipitation or crystallization of the active ingredient in the oil dispersion [2, 4]
COc1nc(C)nc(NC(=O)[N-]S(=O)(=O)c2ccccc2I)n1.[Na+] [amorphous sodium salt, sodium salt of 2-iodo-N-[(4-methoxy-6-methyl-1,3,5-triazin-2-yl)carbamoyl]benzenesulfonamide]	physically unstable formulations	significant rises in viscosity, up to and including complete solidification	precipitation or crystallization of the active ingredient		
COc1nc(C)nc(NC(=O)[N-]S(=O)(=O)c2ccccc2I)n1.[Na+] [hydrate, hydrate of the sodium salt of 2-iodo-N-[(4-methoxy-6-methyl-1,3,5-triazin-2-yl)carbamoyl]benzenesulfonamide]				Nor was any change found in the viscosity	did not exhibit any signs of precipitation or crystallization of the active ingredient

Source: patent publication US20110237436A1, “Hydrate and anhydrous crystal form of the sodium salt of 2-iodo-N-[(4-methoxy-6-methyl-1,3,5-triazin-2-yl)carbamoyl]benzenesulfonamide, process for preparation thereof and use thereof as herbicides and plant growth regulators” (BAYER CROPSCIENCE AG, priority 2010, published 2011)
